Reference: publication PMC4857087, “A potential adjuvant chemotherapeutics, 18β-glycyrrhetinic acid, inhibits renal tubular epithelial cells apoptosis via enhancing BMP-7 epigenetically through targeting HDAC2” (Scientific Reports, 2016)
pKd: −log10 of the molar value.

What was measured:
[1] = target: HDAC2 (Homo sapiens, UniProt Q92769); test: SPR (Biacore T200, HDAC2 immobilized on CM5 chip, […] Langmuir fit); assay type: binding
[2] = system: HK2; test: cells; parameters: species or system mTEC; antiproliferative activity on renal tubular epithelial cells, 48 h; conditions: Homo sapiens, HK-2, 48 h
Method: GA could be transformed into 18β-glycyrrhetinic acid (18βGA) via biotransformation. At first, compounds GA and 18βGA were evaluated for their antiproliferative activities against mTEC and HK2 cell lines. The cells were allowed to proliferate in the presence of tested material for 48 h, and the results were reported in terms of IC50 values (Supplementary Table S2). […] Thus we chose GA 0.05, 0.1, 0.2, 0.4, 0.8 mM and 18βGA 2.5, 5, 10, 20, 30 μM to further evaluate the roles on KIM-1. […] Thus, 18βGA was chosen to discuss the mechanisms in AKI induced by CP. Cisplatin (CP), glycyrrhizic acid ammonium salt (GA), 18β-glycyrrhetinic acid (18βGA), Dimethyl sulfoxide (DMSO), MTT (3-(4, 5-dimethylthiazol-2-yl)-2, 5-diphenyltetrazoliumbromide) and all other chemicals were obtained from Sigma-Aldrich (St. Louis, MO, USA). BMP-7, KIM-1, Bcl-2 and Bax antibodies were purchased from Santa Cruz (CA, USA). β-actin antibody and secondary antibodies for goat anti-rabbit IgG HRP and rabbit anti-goat IgG HRP were purchased from Bioworld Technology (Nanjing, China). Creatinine (Cr) and Blood Urea Nitrogen (BUN) assay kit were purchased from Siemens (NY, USA).

HDAC2, sequence (Q92769 whole entry): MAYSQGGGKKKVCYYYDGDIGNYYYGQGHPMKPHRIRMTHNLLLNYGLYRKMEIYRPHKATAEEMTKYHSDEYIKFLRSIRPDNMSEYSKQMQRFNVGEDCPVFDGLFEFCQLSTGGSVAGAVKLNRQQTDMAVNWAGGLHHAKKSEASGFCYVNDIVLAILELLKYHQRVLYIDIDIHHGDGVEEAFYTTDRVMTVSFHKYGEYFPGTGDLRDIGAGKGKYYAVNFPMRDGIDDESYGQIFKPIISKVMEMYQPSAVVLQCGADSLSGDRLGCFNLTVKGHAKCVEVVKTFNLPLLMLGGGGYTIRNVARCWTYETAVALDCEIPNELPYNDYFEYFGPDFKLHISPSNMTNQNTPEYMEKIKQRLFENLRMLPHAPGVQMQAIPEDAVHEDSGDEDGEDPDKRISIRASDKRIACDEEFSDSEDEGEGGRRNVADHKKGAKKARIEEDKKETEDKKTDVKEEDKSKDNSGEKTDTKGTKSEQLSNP

Compound: CC1(C)[C@@H](O)CC[C@]2(C)[C@H]3C(=O)C=C4[C@@H]5C[C@@](C)(C(=O)O)CC[C@]5(C)CC[C@@]4(C)[C@]3(C)CC[C@@H]12 [18βGA, 18β-glycyrrhetinic acid]
- pKd [1]: 6.21
- IC50 [2]: 0.073 mM
